Data set [1] concerns the target T1, Ubiquitin-conjugating enzyme E2 N (Homo sapiens, UniProt P61088).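 Further: Dose-response confirmation in a TR-FRET assay detecting UBC13-driven polyubiquitin chain formation, inhibition measured.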
T1 sequence (P61088 whole entry): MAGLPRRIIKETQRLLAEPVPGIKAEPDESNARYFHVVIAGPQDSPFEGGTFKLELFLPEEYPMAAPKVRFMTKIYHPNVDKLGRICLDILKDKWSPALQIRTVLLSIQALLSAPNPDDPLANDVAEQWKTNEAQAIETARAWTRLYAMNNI
It is filed as functional.

Data set [2] has as its target T2, Cytochrome P450 1A2 (Homo sapiens, UniProt P05177).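 Further: PubChem cytochrome P450 panel assay, CYP1A2 panel member.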
T2 sequence (P05177 whole entry): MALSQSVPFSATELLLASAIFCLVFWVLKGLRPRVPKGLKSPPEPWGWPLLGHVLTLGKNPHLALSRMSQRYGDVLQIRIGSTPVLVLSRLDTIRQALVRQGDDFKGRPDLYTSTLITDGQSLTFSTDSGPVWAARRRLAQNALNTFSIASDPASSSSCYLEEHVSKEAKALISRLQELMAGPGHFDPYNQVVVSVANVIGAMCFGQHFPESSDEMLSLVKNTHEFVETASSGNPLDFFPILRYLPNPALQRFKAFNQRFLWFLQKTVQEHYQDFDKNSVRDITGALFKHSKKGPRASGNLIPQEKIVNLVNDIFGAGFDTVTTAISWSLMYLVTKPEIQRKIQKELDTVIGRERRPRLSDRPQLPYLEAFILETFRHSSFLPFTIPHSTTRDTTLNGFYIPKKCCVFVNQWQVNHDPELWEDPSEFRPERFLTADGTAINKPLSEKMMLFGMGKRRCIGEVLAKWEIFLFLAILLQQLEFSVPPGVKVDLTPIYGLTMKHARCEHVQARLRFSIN

Data set [3] has as its target Hepatocyte nuclear factor 4-alpha (Homo sapiens, UniProt P41235). It is filed as functional, cell-based.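 Further: biochemical luminescence-based dose-response counterscreen measuring inhibition of HNF4 dimerization, run alongside a screen for blockers of ABHD5–perilipin-5 interaction; split luciferase complementation of HNF4 fusion proteins in cell lysate measuring dimerization.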
For data set [4], the target named is T3, RNA-binding protein pos-1 (Caenorhabditis elegans, UniProt G5EF15).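 Further: purified POS-1 fused to maltose binding protein made in E. coli; potency of compounds blocking POS-1 binding to fluorescent RNA.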
T3 sequence (G5EF15 whole entry): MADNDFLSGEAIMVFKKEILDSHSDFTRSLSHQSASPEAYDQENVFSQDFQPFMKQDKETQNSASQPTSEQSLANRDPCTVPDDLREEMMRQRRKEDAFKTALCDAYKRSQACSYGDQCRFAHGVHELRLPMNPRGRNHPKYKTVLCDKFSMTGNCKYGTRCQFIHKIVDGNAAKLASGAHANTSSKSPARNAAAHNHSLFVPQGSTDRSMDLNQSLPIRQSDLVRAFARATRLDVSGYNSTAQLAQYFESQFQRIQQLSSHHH
Kind of data set: disruptors of C. elegans POS-1 RNA interaction – biochemical, fluorescence polarization, dose response (AID 1964). (Polarisation of emitted light reports the rotation of a fluorescent probe.)

In data set [5] the target is T4, DNA repair and recombination protein RAD54-like (Homo sapiens, UniProt Q92698).
T4 sequence (Q92698 whole entry): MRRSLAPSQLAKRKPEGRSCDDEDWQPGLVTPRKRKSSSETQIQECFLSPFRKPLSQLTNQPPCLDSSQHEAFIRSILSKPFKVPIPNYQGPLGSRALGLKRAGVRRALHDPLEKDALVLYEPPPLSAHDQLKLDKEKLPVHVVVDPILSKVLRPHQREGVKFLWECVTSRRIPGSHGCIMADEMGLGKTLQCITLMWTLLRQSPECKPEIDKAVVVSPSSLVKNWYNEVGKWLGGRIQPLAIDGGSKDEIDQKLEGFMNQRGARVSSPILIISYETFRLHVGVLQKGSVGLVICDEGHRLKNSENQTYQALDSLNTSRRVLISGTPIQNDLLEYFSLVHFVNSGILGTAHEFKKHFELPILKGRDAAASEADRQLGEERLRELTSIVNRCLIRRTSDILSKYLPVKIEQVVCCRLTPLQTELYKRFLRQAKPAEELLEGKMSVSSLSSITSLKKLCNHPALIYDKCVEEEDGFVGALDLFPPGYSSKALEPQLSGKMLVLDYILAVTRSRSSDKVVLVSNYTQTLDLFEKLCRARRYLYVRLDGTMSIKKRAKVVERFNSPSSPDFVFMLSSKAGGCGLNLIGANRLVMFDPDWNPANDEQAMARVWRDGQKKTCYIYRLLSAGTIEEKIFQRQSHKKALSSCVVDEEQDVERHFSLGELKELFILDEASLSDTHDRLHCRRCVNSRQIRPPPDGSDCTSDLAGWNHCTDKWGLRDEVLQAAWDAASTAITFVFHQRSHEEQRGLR
Put plainly: RAD54 Holliday junction migration blockers – biochemical, fluorescence, cherry-picked samples, dose series, confirmation (AID 651657). It is filed as functional.

The target in data set [6] is T5, Intestinal-type alkaline phosphatase (Homo sapiens, UniProt P09923). Kind of data set: inhibition of human intestinal alkaline phosphatase – biochemical, luminescent, uHTS hits, set 2, dose response (AID 488793). It is filed as functional.
T5 sequence (P09923 whole entry): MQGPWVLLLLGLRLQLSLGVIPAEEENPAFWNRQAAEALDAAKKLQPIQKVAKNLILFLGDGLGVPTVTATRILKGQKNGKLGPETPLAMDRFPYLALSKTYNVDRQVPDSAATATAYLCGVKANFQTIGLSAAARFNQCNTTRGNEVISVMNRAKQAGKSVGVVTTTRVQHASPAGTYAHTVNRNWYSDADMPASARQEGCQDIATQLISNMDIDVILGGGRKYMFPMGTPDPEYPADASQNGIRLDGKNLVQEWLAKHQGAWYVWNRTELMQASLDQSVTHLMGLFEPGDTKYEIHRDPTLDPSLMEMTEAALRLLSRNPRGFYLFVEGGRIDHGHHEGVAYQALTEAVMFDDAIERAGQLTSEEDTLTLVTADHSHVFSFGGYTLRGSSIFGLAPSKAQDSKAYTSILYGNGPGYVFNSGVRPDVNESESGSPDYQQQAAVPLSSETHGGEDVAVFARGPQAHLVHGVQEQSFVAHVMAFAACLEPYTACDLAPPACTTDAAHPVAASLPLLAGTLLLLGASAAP
Data set [7] has as its target T6, Intestinal-type alkaline phosphatase (Mus musculus, UniProt P24822). Kind of data set: PubChem AID 488874. It is filed as functional.
A short description of data set [8]: Counterscreen for activators of the function of SWI/SNF related, matrix associated, actin dependent regulator of chromatin, subfamily a, member 2 (SMARCA2, BRM): Luminescence-based cell-based high throughput dose response assay to identify non-selective compounds using the VP16 reporter assay. It is filed as functional.
Data set [9] in a line: NIH3T3 cell viability loss – ATP luminescence, mouse fibroblasts, counter-screen, dose response (AID 2010).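 Further: cells exposed to compound for about 90 hours before reading.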 It is filed as functional, cell-based. Background: A counterscreen serves to expose hits that act by an unwanted route or on another target.
Data set [10] can be described thus: Trypanosoma cruzi growth suppression in host cells – NIH3T3 host cells, beta-gal luminescence, confirmation (AID 2044).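 Further: intracellular parasites grown in NIH/3T3 mouse fibroblasts as host cells; luminescent beta-galactosidase reporter signal from transgenic T. cruzi replicating inside host cells; inhibitors lower the luminescence signal.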 It is filed as functional, cell-based.
For data set [11], the system named is INS1. Kind of data set: INS-1E survival protection against cytokine death – cell-based, luminescence, retest, dose response (AID 449756).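 Further: cell death triggered by IL-1 beta plus TNF-alpha plus IFN-gamma mixture; protective hits raise ATP signal compared with cytokine alone wells.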 It is filed as functional. The following applies: Rattus norvegicus.
Data set [12] deals with T7, DNA repair protein RAD52 homolog (Homo sapiens, UniProt P43351).
T7 sequence (P43351 whole entry): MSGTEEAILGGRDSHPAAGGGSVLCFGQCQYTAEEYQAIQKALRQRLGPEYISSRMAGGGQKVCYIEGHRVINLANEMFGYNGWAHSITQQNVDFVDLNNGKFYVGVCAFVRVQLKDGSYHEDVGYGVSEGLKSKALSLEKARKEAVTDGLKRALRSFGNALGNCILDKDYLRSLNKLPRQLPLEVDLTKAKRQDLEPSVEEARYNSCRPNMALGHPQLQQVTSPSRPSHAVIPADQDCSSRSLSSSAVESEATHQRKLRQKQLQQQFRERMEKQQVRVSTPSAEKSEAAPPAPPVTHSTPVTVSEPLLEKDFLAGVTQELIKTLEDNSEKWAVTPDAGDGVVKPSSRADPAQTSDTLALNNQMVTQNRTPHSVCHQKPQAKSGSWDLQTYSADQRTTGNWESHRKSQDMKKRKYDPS
It is filed as functional, biochemical.

For data set [13], the target named is T8, Zinc finger protein mex-5 (Caenorhabditis elegans, UniProt Q9XUB2).
T8 sequence (Q9XUB2 whole entry): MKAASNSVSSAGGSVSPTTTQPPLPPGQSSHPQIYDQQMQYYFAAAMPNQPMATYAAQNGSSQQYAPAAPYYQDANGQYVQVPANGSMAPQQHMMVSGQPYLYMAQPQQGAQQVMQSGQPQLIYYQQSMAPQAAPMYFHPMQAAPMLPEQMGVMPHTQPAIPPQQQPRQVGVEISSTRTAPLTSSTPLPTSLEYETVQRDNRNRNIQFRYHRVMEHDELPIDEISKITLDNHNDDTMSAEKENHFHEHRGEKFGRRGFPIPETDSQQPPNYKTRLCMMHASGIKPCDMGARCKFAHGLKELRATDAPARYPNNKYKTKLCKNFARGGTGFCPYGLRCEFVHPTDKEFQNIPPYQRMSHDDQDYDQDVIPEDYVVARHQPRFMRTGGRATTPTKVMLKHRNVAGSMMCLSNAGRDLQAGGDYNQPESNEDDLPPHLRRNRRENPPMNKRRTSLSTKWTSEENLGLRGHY
Put plainly: potency of MEX-5 RNA-binding blockers – biochemical, C. elegans, fluorescence polarization, dose response (AID 1960).

For data set [14], the target named is SWI/SNF-related matrix-associated actin-dependent regulator of chromatin subfamily A member 2 (Homo sapiens, UniProt P51531). Put plainly: Luminescence-based cell-based high throughput dose response assay to identify activators of the function of SWI/SNF related, matrix associated, actin dependent regulator of chromatin, subfamily a, member 2 (SMARCA2, BRM). It is filed as functional.
Sequence of SWI/SNF-related matrix-associated actin-dependent regulator of chromatin subfamily A member 2 (P51531 whole entry): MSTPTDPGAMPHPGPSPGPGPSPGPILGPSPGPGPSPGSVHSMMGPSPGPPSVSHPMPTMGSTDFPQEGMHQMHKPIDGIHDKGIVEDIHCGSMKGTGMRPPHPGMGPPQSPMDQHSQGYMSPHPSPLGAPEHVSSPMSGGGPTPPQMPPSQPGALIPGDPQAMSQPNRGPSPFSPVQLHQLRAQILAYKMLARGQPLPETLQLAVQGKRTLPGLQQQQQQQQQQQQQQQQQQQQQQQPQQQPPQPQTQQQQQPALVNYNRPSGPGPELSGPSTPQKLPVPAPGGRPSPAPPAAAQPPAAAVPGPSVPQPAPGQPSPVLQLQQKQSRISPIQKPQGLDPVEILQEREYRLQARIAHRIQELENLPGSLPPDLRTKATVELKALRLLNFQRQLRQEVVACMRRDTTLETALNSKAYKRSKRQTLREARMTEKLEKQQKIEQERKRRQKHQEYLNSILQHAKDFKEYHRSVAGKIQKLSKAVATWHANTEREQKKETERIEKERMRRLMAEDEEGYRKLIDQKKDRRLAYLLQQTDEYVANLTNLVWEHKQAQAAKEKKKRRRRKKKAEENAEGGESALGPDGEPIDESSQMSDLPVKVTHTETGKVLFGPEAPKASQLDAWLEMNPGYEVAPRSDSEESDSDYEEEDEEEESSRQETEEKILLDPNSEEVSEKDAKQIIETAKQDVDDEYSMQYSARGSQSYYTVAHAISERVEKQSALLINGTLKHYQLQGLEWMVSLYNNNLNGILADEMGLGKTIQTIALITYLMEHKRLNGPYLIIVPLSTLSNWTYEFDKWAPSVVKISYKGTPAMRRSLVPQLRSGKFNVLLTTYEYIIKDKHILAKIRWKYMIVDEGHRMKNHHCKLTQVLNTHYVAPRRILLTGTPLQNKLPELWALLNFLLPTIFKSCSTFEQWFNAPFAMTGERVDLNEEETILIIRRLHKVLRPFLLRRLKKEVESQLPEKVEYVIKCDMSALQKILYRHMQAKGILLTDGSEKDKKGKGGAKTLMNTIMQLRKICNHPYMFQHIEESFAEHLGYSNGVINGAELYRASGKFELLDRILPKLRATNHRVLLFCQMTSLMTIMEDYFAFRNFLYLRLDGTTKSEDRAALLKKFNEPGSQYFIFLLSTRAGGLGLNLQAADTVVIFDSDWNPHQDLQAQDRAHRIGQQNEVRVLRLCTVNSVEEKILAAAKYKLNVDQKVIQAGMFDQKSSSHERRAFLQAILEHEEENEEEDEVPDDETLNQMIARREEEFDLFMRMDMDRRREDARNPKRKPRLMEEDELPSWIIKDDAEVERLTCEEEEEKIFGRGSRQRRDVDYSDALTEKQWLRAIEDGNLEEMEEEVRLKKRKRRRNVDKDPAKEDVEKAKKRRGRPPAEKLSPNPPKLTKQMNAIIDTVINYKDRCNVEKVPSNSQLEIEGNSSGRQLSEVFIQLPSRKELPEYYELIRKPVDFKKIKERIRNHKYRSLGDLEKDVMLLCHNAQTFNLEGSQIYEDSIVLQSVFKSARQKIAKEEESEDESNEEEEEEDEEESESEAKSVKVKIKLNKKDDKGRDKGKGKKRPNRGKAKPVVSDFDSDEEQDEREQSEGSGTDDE

The target of data set [15] is T5, Intestinal-type alkaline phosphatase. Put plainly: Dose Response confirmation of uHTS hits from a small molecule inhibitors of human intestinal alkaline phosphatase via a luminescent assay. [Related pubchem assays (depositor defined):AID2544, AID2574]. It is filed as functional.
Data set [16] concerns the target T9, Alkaline phosphatase, tissue-nonspecific isozyme (Homo sapiens, UniProt P05186).
T9 sequence (P05186 whole entry): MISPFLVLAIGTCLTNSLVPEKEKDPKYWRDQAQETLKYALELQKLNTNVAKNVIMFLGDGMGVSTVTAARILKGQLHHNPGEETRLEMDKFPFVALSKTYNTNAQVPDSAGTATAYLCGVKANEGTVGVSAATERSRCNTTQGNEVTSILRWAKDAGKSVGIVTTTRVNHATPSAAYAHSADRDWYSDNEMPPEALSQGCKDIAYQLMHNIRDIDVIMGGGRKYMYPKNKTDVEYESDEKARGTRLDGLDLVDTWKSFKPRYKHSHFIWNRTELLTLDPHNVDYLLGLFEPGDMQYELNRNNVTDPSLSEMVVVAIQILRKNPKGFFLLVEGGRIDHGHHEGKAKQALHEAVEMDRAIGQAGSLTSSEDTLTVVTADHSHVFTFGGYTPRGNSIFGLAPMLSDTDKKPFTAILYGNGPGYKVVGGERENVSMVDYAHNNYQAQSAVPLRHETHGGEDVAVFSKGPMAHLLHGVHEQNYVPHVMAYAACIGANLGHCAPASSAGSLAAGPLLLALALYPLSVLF
Put plainly: inhibition of tissue-nonspecific alkaline phosphatase – biochemical, dose response (AID 488882). It is filed as functional.

For data set [17], the target named is T5, Intestinal-type alkaline phosphatase. Put plainly: inhibition of human intestinal alkaline phosphatase – biochemical, dose response (AID 488876). It is filed as functional.
Data set [18] concerns the target T6, Intestinal-type alkaline phosphatase. Put plainly: PubChem AID 488785. It is filed as functional.
The target of data set [19] is FAD-linked sulfhydryl oxidase ALR (Homo sapiens, UniProt P55789). Kind of data set: ALR-catalysed DTT oxidation blockers – biochemical, H2O2 detection, luminescence, cherry-pick, dose response (AID 493248).
Sequence of FAD-linked sulfhydryl oxidase ALR (P55789 whole entry): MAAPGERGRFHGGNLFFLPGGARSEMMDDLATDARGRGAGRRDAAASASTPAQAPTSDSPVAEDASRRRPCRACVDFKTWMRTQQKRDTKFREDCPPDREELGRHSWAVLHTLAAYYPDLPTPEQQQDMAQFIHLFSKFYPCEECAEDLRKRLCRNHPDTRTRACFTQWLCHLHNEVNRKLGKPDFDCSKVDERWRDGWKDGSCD
The target of data set [20] is Albumin (Bos taurus, UniProt P02769). Kind of data set: Counterscreen for inhibitors of T-cell receptor (TCR)-CD3 interaction: Fluorescence-based biochemical high throughput dose response assay to identify inhibitors of T-cell receptor (TCR)-CD3 interaction using a TAMRA-labeled BSA probe. It is filed as functional.
Sequence of Albumin (P02769 whole entry): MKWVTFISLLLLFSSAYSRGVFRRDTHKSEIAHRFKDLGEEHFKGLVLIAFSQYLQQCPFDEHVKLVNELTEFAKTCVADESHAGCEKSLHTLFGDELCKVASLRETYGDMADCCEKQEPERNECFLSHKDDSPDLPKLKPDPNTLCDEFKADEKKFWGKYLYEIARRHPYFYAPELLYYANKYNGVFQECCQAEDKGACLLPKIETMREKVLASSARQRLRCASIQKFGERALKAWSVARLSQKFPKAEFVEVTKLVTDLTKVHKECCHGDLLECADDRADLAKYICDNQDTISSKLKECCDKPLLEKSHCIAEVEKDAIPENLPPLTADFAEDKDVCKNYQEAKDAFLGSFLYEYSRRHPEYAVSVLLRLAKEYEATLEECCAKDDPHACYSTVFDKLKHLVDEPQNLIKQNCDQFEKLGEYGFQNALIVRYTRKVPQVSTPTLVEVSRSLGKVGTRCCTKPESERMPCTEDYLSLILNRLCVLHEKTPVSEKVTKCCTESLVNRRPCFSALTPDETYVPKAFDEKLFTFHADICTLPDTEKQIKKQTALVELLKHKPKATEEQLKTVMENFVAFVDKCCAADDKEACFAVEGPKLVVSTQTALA
Data set [21] deals with T9, Alkaline phosphatase, tissue-nonspecific isozyme. Put plainly: TNAP enzyme inhibition by screening hits, dose response, selectivity assay for mouse IAP inhibitor project, biochemical, human TNAP, uHTS hits (AID 488906). It is filed as functional.
The target in data set [22] is CAAX prenyl protease 1 (Saccharomyces cerevisiae S288c, UniProt P47154). Kind of data set: yeast CAAX protease Ste24 inhibition – biochemical, S. cerevisiae, plate reader, cherry-pick, dose response (AID 488815).
Sequence of CAAX prenyl protease 1 (P47154 whole entry): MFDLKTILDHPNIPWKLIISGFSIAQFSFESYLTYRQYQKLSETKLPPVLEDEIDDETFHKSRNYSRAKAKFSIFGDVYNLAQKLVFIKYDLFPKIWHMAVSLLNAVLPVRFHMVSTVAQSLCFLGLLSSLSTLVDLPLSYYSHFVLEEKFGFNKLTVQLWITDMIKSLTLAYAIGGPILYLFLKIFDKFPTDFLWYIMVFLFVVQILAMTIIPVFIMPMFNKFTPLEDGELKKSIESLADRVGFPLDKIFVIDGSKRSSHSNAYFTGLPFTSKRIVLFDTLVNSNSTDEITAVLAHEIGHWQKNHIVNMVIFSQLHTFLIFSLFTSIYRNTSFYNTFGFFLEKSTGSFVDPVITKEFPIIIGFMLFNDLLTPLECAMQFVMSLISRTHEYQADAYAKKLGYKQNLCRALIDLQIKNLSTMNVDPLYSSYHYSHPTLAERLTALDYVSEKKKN
The target of data set [23] is T10, CAAX prenyl protease 2 (Saccharomyces cerevisiae S288c, UniProt Q03530).
T10 sequence (Q03530 whole entry): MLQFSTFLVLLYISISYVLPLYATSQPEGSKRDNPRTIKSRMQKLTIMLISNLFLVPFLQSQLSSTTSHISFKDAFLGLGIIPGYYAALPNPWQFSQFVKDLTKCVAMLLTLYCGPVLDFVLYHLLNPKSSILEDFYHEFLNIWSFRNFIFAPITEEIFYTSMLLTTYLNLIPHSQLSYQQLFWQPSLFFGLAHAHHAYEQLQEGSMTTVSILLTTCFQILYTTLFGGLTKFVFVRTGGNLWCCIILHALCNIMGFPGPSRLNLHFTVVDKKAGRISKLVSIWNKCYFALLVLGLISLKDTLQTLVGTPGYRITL
It is filed as biochemical.

Calls of active or inactive are those of the source.

Broadly, the IC50 is the concentration needed to halve the response being measured. What is called AC50 is the concentration giving half of the maximal activity seen. The term EC50 denotes the concentration that produces a half-maximal response.

T6 sequence (P24822 whole entry): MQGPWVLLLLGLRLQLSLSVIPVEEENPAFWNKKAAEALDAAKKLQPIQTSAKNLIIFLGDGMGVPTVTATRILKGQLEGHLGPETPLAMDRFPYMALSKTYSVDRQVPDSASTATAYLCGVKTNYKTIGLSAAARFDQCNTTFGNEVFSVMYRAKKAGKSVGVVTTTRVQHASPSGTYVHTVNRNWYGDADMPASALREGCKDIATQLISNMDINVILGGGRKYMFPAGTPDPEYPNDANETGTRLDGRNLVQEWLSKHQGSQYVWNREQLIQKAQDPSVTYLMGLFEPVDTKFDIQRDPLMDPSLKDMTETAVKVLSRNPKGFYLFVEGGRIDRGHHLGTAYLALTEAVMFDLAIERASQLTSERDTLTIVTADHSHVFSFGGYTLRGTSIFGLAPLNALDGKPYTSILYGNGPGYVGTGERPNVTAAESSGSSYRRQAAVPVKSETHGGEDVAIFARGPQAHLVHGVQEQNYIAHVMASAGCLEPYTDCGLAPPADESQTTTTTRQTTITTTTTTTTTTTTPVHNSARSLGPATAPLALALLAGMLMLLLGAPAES
Sequence of Hepatocyte nuclear factor 4-alpha (P41235 whole entry, the tested form may be a part): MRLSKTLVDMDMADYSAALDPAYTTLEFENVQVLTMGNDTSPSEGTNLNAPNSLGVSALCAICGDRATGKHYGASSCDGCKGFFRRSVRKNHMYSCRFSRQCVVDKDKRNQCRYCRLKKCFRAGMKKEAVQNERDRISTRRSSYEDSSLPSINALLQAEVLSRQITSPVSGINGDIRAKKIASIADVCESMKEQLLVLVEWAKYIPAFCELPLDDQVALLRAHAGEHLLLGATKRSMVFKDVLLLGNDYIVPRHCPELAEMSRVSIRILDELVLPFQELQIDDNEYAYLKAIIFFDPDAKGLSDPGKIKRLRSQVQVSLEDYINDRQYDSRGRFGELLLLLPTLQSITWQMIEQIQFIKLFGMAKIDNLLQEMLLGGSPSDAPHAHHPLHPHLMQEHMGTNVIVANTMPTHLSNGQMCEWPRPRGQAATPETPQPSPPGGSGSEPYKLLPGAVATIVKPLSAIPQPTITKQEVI

As to `CN1[C@@H]2CC[C@H]1C[C@@H](OC1c3ccccc3CCc3ccccc31)C2` [DEPTROPINE], the IC50 in data set [1] is > 20 µM (inactive); in data set [3] it was 10 µM (inactive). In addition, the AC50 entry in data set [2] was “inactive”.

As to `COc1ccc2nc3cc(Cl)ccc3c(Nc3cc(CN4CCCC4)c(O)c(CN4CCCC4)c3)c2n1`, the EC50 in data set [4] was 32.2 µM (active); in [8], > 91.2 µM (inactive); in data set [9] it was > 16 µM (not active); in [10], 0.587 µM (active); in data set [13] it was 22 µM (active); in data set [14] it was > 3.38 µM (active). Further, the figures for the AC50 in data set [5], in data set [11] and in data set [12] were 0.791 µM (active), 3.38 µM (active) and < 0.351 µM (active), respectively. Besides, the IC50 was 10.5 µM (active) in [6], 40.5 µM (active) in [7], 5.61 µM (active) in [15] and 20.3 µM (active) in [16].

With `O=C(N/N=C/c1cccnc1)c1cc(O)c(O)c(O)c1`, the EC50 is 24.8 µM (active) in [4] and 4.24 µM (active) in data set [13]. The IC50 in data set [17] is > 100 µM (inactive); in data set [18], 5.77 µM (active); in data set [20] it was > 94 µM (inactive); in [21], > 100 µM (inactive). The AC50 in data set [19] is < 0.005 µM (active).

For the molecule `COc1ccc(-c2cc(C(F)(F)F)nc(SCC(=O)N(C)Cc3cn(C)nc3C)n2)cc1OC`, the AC50 in data set [22] was 12.7 µM (active); in [23] it was 23.3 µM (active).
